Measurements reported in patent US20060154243A1 (priority 2003, published 2006).

Legend:
Type in all cases: binding, human
[1] = test system: serum 1a (individual 1, early serum)
[2] = test system: serum 1b (individual 1, late serum)
serum 2 (individual 2) = test system: serum 2 (individual 2)
serum 6 (individual 6) = test system: serum 6 (individual 6)
serum 37 (individual 37) = test system: serum 37 (individual 37)
serum 62 (individual 62) = test system: serum 62 (individual 62)
serum London = test system: serum London
serum SARS-yellow = test system: serum SARS-yellow
serum SARS-green = test system: serum SARS-green
[3] = test system: control serum LUMC (pooled serum of ten healthy hospital workers)
[4] = test system: control serum Blood-bank (commercial negative donor pooled serum)
[5] = test system: sera SARS-green, SARS-yellow, 1a, 1b, 2, 6, 37, 62 and London

Sequence | Binding of serum 1a to linear peptides of Orf14 of SARS-CoV TOR2 [1] | Binding of serum 1b to linear peptides of Orf14 of SARS-CoV TOR2 [2] | Binding of serum 2 to linear peptides of Orf14 of SARS-CoV TOR2 (serum 2 (individual 2)) | Binding of serum 6 to linear peptides of Orf14 of SARS-CoV TOR2 (serum 6 (individual 6)) | Binding of serum 37 to linear peptides of Orf14 of SARS-CoV TOR2 (serum 37 (individual 37)) | Binding of serum 62 to linear peptides of Orf14 of SARS-CoV TOR2 (serum 62 (individual 62)) | Binding of serum London to linear peptides of Orf14 of SARS-CoV TOR2 (serum London) | Binding of serum SARS-yellow to linear peptides of Orf14 of SARS-CoV TOR2 (serum SARS-yellow) | Binding of serum SARS-green to linear peptides of Orf14 of SARS-CoV TOR2 (serum SARS-green) | Control serum LUMC linear peptides [3] | Control serum LUMC looped peptides [3] | Control Serum Blood-Bank Looped peptides [4] | Control serum Blood-bank linear peptides [4] | Recognition of the peptide by sera of individuals infected by SARS-CoV, form recognized [5]
HCQKASTQREAEAAV | 0.6 | 0.5 | 0.9 | 0.6 | 0.7 | 0.7 | 0.7 | 0.6 | 0.4 | 0.6 | 0.8 | 0.9 | 0.5 | recognized in looped form
KASTQREAEAAVKPL | 0.3 | 0.3 | 0.3 | 0.3 | 0.3 | 0.2 | 0.2 | 0.1 | 0.1 | 0.3 | 0.6 | 0.6 | 0.3 | recognized in looped form
KEQHCQKASTQREAE | 0.4 | 0.3 | 0.4 | 0.3 | 0.4 | 0.2 | 0.3 | 0.2 | 0.1 | 0.3 | 0.8 | 0.9 | 0.3 | recognized in looped form
LKEQHCQKASTQREA | 0.3 | 0.2 | 0.4 | 0.2 | 0.4 | 0.2 | 0.3 | 0.3 | 0.1 | 0.3 | 0.9 | 0.9 | 0.3 | recognized in looped form
LPPCYNFLKEQHCQK | 0.3 | 0.2 | 0.2 | 0.2 | 0.3 | 0.2 | 0.1 | 0.0 | 0.0 | 0.2 | 0.6 | 0.9 | 0.2 | recognized in looped form
NFLKEQHCQKASTQR | 0.4 | 0.3 | 0.4 | 0.4 | 0.5 | 0.3 | 0.4 | 0.3 | 0.3 | 0.7 | 0.7 | 0.6 | 0.5 | recognized in looped form
PCYNFLKEQHCQKAS | 0.3 | 0.2 | 0.1 | 0.3 | 0.4 | 0.1 | 0.2 | 0.1 | 0.1 | 0.1 | 0.5 | 0.7 | 0.0 | recognized in looped form
PPCYNFLKEQHCQKA | 0.3 | 0.2 | 0.1 | 0.2 | 0.3 | 0.2 | 0.1 | 0.0 | 0.1 | 0.1 | 0.6 | 0.8 | 0.2 | recognized in looped form
QHCQKASTQREAEAA | 0.4 | 0.4 | 0.6 | 0.3 | 0.5 | 0.4 | 0.5 | 0.3 | 0.3 | 0.4 | 1.2 | 1.1 | 0.4 | recognized in looped form
QKASTQREAEAAVKP | 0.4 | 0.3 | 0.4 | 0.3 | 0.4 | 0.3 | 0.3 | 0.1 | 0.1 | 0.3 | 0.8 | 0.7 | 0.3 | recognized in looped form
